Columns and labels:
Assay type in all cases: in vivo
[1] = tested on: palmer (palmer amaranth, palmer pigweed, Amaranthus palmeri); experiment: Test A preemergence soil spray, visual injury rating 0-100; details: 10 days
Method in brief: (§1)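 Grow plants in loam soil blended with sand. Apply formulated compound (non-phytotoxic solvent, surfactant) as a directed soil spray before emergence, or to plants at the one- to two-leaf stage after emergence. Hold in greenhouse 10 days, then rate injury visually versus untreated controls on a 0-100 scale.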

[2] = tested on: green foxtail (Setaria viridis); experiment: as above; details: 10 days
Method in brief: as §1

kochia (Bassia scoparia) [3] = experiment: as above; details: 10 days
Method in brief: as §1

corn (Zea mays) [4] = experiment: as above; details: 10 days
Method in brief: as §1

soybean (Glycine max) [5] = experiment: as above; details: 10 days
Method in brief: as §1

[6] = tested on: ragweed (common ragweed, Ambrosia artemisiifolia); experiment: as above; details: 10 days
Method in brief: as §1

[7] = tested on: barnyardgrass (Echinochloa crus-galli); experiment: as above; details: 10 days
Method in brief: as §1

[8] = tested on: wheat (Triticum aestivum); experiment: as above; details: 10 days
Method in brief: as §1

[9] = tested on: oat, wild (wild oat, Avena fatua); experiment: as above; details: 10 days
Method in brief: as §1

[10] = tested on: blackgrass (Alopecurus myosuroides); experiment: as above; details: 10 days
Method in brief: as §1

[11] = tested on: ryegrass, Italian (italian ryegrass, Lolium multiflorum); experiment: as above; details: 10 days
Method in brief: as §1

rice (Oryza sativa) = experiment: Test B flooded paddy test, visual plant response rating 0-100; details: 250 g ai/ha, Flood, applied to paddy water, evaluated after 13 days
Method in brief: (§2)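 Each species was raised to two leaves before flooding to a 3 cm depth and dosing the water with compound. Injury was assessed by eye after 13 days under greenhouse conditions.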

[12] = tested on: sedge, umbrella (small-flower umbrella sedge, Cyperus difformis); experiment: as above; details: 250 g ai/ha, Flood, applied to paddy water, evaluated after 13 days
Method in brief: as §2

[13] = tested on: barnyardgrass (Echinochloa crusgalli); experiment: as above; details: 250 g ai/ha, Flood, applied to paddy water, evaluated after 13 days
Method in brief: as §2

[14] = tested on: ducksalad (Heteranthera limosa); experiment: as above; details: 250 g ai/ha, Flood, applied to paddy water, evaluated after 13 days
Method in brief: as §2

[15] = tested on: palmer (palmer amaranth, palmer pigweed, Amaranthus palmeri); experiment: Test A postemergence application, visual injury rating 0-100
Method in brief: as §1

[16] = tested on: green foxtail (Setaria viridis); experiment: as above
Method in brief: as §1

kochia (Bassia scoparia) [17] = experiment: as above
Method in brief: as §1

corn (Zea mays) [18] = experiment: as above
Method in brief: as §1

[19] = tested on: galium (catchweed bedstraw, Galium aparine); experiment: as above
Method in brief: as §1

soybean (Glycine max) [20] = experiment: as above
Method in brief: as §1

[21] = tested on: ragweed (common ragweed, Ambrosia artemisiifolia); experiment: as above
Method in brief: as §1

[22] = tested on: barnyardgrass (Echinochloa crus-galli); experiment: as above
Method in brief: as §1

[23] = tested on: wheat (Triticum aestivum); experiment: as above
Method in brief: as §1

[24] = tested on: oat, wild (wild oat, Avena fatua); experiment: as above
Method in brief: as §1

[25] = tested on: blackgrass (Alopecurus myosuroides); experiment: as above
Method in brief: as §1

[26] = tested on: ryegrass, Italian (italian ryegrass, Lolium multiflorum); experiment: as above
Method in brief: as §1

[27] = 62 g ai/ha, 0 = no effect, 100 = complete control
[28] = 62 g ai/ha, postemergence, 10 days, 0 = no effect, 100 = complete control
[29] = Postemergence, 16 g ai/ha, greenhouse 10 days, 0 no effect, 100 complete control

**Q.** Which “Pigweed, Palmer plant response rating” value ([1]; 16 g ai/ha, 0 to 100 scale) does the source give for `COC(=O)C1C=CC(NC(=O)C2(C(F)(F)F)CN(c3cc(F)c(F)c(F)c3)C(=O)O2)C1` (mixture of isomers) [Compound 162] here?
**A.** The value was 0.

**Q.** And the “Pigweed, Palmer plant response rating (0-100)” value [1, 27]?
**A.** Its value is 30.

**Q.** And the “Foxtail, Green plant response rating” value ([2]; 16 g ai/ha, 0 to 100 scale)?
**A.** The value was 0.

**Q.** And the “Foxtail, Green plant response rating (0-100)” value [2, 27]?
**A.** Its value is 30.

**Q.** What about the “Kochia plant response rating” value (kochia (Bassia scoparia) [3]; 16 g ai/ha, 0 to 100 scale) of the same compound?
**A.** The value was 0.

**Q.** And the “Kochia plant response rating (0-100)” value (kochia (Bassia scoparia) [3]; [27])?
**A.** The value was 40.

**Q.** What about the “Corn plant response rating” value (corn (Zea mays) [4]; 16 g ai/ha, 0 to 100 scale) of the same compound?
**A.** Its value is 0.

**Q.** What about the “Corn plant response rating (0-100)” value (corn (Zea mays) [4]; [27]) of the same compound?
**A.** Its value is 70.

**Q.** What about the “Soybean plant response rating” value (soybean (Glycine max) [5]; 16 g ai/ha, 0 to 100 scale) of the same compound?
**A.** Its value is 10.

**Q.** What about the “Soybean plant response rating (0-100)” value (soybean (Glycine max) [5]; [27]) of the same compound?
**A.** Its value is 50.

**Q.** What about the “Ragweed plant response rating” value ([6]; 16 g ai/ha, 0 to 100 scale) of the same compound?
**A.** The value was 0.

**Q.** And the “Ragweed plant response rating (0-100)” value [6, 27]?
**A.** Its value is 10.

**Q.** And the “Barnyardgrass plant response rating” value ([7]; 16 g ai/ha, 0 to 100 scale)?
**A.** Its value is 0.

**Q.** What about the “Barnyardgrass plant response rating (0-100)” value [7, 27] of the same compound?
**A.** Its value is 80.

**Q.** And the “Wheat plant response rating” value ([8]; 16 g ai/ha, 0 to 100 scale)?
**A.** The value was 20.

**Q.** And the “Wheat plant response rating (0-100)” value [8, 27]?
**A.** The value was 90.

**Q.** And the “Oat, Wild plant response rating” value ([9]; 16 g ai/ha, 0 to 100 scale)?
**A.** Its value is 20.

**Q.** What about the “Oat, Wild plant response rating (0-100)” value [9, 27] of the same compound?
**A.** The value was 90.

**Q.** And the “Blackgrass plant response rating” value ([10]; 16 g ai/ha, 0 to 100 scale)?
**A.** The value was 0.

**Q.** And the “Blackgrass plant response rating (0-100)” value [10, 27]?
**A.** Its value is 60.

**Q.** What about the “Ryegrass, Italian plant response rating” value ([11]; 16 g ai/ha, 0 to 100 scale) of the same compound?
**A.** Its value is 0.

**Q.** And the “Ryegrass, Italian plant response rating (0-100)” value [11, 27]?
**A.** The value was 80.

**Q.** What about the “Plant response rating, Rice (0 to 100 scale, 0 is no effect and 100 is complete control)” value (rice (Oryza sativa)) of the same compound?
**A.** Its value is 0.

**Q.** What about the “Plant response rating, Sedge, Umbrella (0 to 100 scale, 0 is no effect and 100 is complete control)” value [12] of the same compound?
**A.** Its value is 0.

**Q.** What about the “Plant response rating, Barnyardgrass (0 to 100 scale, 0 is no effect and 100 is complete control)” value [13] of the same compound?
**A.** Its value is 20.

**Q.** What about the “Plant response rating, Ducksalad (0 to 100 scale, 0 is no effect and 100 is complete control)” value [14] of the same compound?
**A.** The value was 65.

**Q.** And the “Pigweed, Palmer plant response rating (0-100)” value [15, 28]?
**A.** Its value is 50.

**Q.** And the “Pigweed, Palmer plant response rating (0 to 100 scale)” value [15, 29]?
**A.** The value was 10.

**Q.** What about the “Foxtail, Green plant response rating (0-100)” value [16, 28] of the same compound?
**A.** The value was 80.

**Q.** What about the “Foxtail, Green plant response rating (0 to 100 scale)” value [16, 29] of the same compound?
**A.** The value was 30.

**Q.** And the “Kochia plant response rating (0-100)” value (kochia (Bassia scoparia) [17]; [28])?
**A.** The value was 70.

**Q.** What about the “Kochia plant response rating (0 to 100 scale)” value (kochia (Bassia scoparia) [17]; [29]) of the same compound?
**A.** The value was 0.

**Q.** What about the “Corn plant response rating (0-100)” value (corn (Zea mays) [18]; [28]) of the same compound?
**A.** Its value is 100.

**Q.** And the “Corn plant response rating (0 to 100 scale)” value (corn (Zea mays) [18]; [29])?
**A.** Its value is 100.

**Q.** And the “Galium plant response rating (0-100)” value [19, 28]?
**A.** Its value is 60.

**Q.** And the “Galium plant response rating (0 to 100 scale)” value [19, 29]?
**A.** Its value is 30.

**Q.** And the “Soybean plant response rating (0-100)” value (soybean (Glycine max) [20]; [28])?
**A.** The value was 70.

**Q.** And the “Soybean plant response rating (0 to 100 scale)” value (soybean (Glycine max) [20]; [29])?
**A.** The value was 60.

**Q.** What about the “Ragweed plant response rating (0-100)” value [21, 28] of the same compound?
**A.** Its value is 40.

**Q.** What about the “Ragweed plant response rating (0 to 100 scale)” value [21, 29] of the same compound?
**A.** The value was 20.

**Q.** What about the “Barnyardgrass plant response rating (0-100)” value [22, 28] of the same compound?
**A.** The value was 100.

**Q.** What about the “Barnyardgrass plant response rating (0 to 100 scale)” value [22, 29] of the same compound?
**A.** Its value is 50.

**Q.** What about the “Wheat plant response rating (0-100)” value [23, 28] of the same compound?
**A.** The value was 90.

**Q.** And the “Wheat plant response rating (0 to 100 scale)” value [23, 29]?
**A.** Its value is 90.

**Q.** What about the “Oat, Wild plant response rating (0-100)” value [24, 28] of the same compound?
**A.** The value was 90.

**Q.** What about the “Oat, Wild plant response rating (0 to 100 scale)” value [24, 29] of the same compound?
**A.** Its value is 80.

**Q.** What about the “Blackgrass plant response rating (0-100)” value [25, 28] of the same compound?
**A.** The value was 100.

**Q.** And the “Blackgrass plant response rating (0 to 100 scale)” value [25, 29]?
**A.** The value was 90.

**Q.** What about the “Ryegrass, Italian plant response rating (0-100)” value [26, 28] of the same compound?
**A.** The value was 70.

**Q.** What about the “Ryegrass, Italian plant response rating (0 to 100 scale)” value [26, 29] of the same compound?
**A.** Its value is 30.

Reference: patent publication US20260285850A1, “SUBSTITUTED OXAZOLIDINONES AND IMIDAZOLINONES AS HERBICIDES” (FMC CORPORATION, priority 2023, published 2026)
